According to patent US20250129088A1, “CEREBLON E3 UBIQUITIN LIGASE INHIBITOR” (Gan & Lee Pharmaceuticals Co., Ltd., priority 2022, published 2025):

Columns and labels:
Type in all cases: cell-based
[1] = system: MV-4-11 cells; assay: MV-4-11 cell proliferation inhibition, CCK-8; conditions: Homo sapiens, MV4-11, 96 h, MV-4-11, 4 days
Experimental: The complete medium required for MV-4-11 cells is IMDM (ATCC, Product number: 30-2005) basal medium containing 10% fetal bovine serum. MV-4-11 cells were seeded in a 96-well plate at a density of 7,500 cells/well, and different concentrations of the compound of the present invention and positive control samples Alisertib (source: Bide Pharmaceuticals), Palbociclib (source: Bide Pharmaceuticals), Ibrutinib (source Bide Pharmaceuticals) treated cells. The cells were incubated in a 37° C., 5% CO2 cell incubator for 4 days. Cell viability was detected using the CCK-8 kit (Beyotime, Product number: C0040) according to the manufacturer's instructions. According to the inhibition rate, GraphPad Prism software was used to calculate the IC50 value of each compound for 4 days, and the results are shown in Table 6-8.

[2] = system: VCaP cells; assay: VCaP cell proliferation inhibition, CCK-8; conditions: Homo sapiens, 168 h, 7 days
Description: The complete medium required for VCaP cells is DMEM high glucose (Gibco, Product number: 11995-065) basal medium containing 10% fetal bovine serum. […] Cell viability was detected using the CCK-8 kit (Beyotime, Product number: C0040) according to the manufacturer's instructions.

[3] = system: LNCaP FGC cells; assay: LNCaP FGC cell proliferation inhibition, CCK-8; conditions: Homo sapiens, 96 h, 4 days
Description: The complete medium required for LNCaP FGC cells is RPMI 1640 (ATCC, Product number: 30-2001) basal medium containing 10% fetal calf serum. […] Cell viability was detected using the CCK-8 kit (Beyotime, Product number: C0040) according to the manufacturer's instructions.

[4] = Table 6, positive control Alisertib
[5] = Table 7, positive control Palbociclib

Row | Compound | IC50 [1, 4] | IC50 [1, 5] | IC50 [2] | IC50 [3]
1 | N#Cc1ccc(O[C@H]2CC[C@H](NC(=O)c3ccc(N4CCC(CN5CC6(CCc7cc8c(cc7O6)C(=O)N(C6CCC(=O)NC6=O)C8=O)C5)CC4)nn3)CC2)cc1Cl (some centres unmarked) [PROTAC 60] |  |  | 1200 nM | 930 nM
2 | N#Cc1ccc(O[C@H]2CC[C@H](NC(=O)c3ccc(N4CCC5(CC4)CC(N4CCC6(CCc7cc8c(cc7O6)C(=O)N(C6CCC(=O)NC6=O)C8=O)CC4)C5)nn3)CC2)cc1Cl (some centres unmarked) [PROTAC 61] |  |  | 80 nM | 2200 nM
3 | N#Cc1ccc(O[C@H]2CC[C@H](NC(=O)c3ccc(N4CC(N5CCC6(CCc7cc8c(cc7O6)CN(C6CCC(=O)NC6=O)C8=O)CC5)C4)nn3)CC2)cc1Cl (some centres unmarked) [PROTAC 62] |  |  | 100 nM | 1160 nM
4 | N#Cc1ccc(O[C@H]2CC[C@H](NC(=O)c3ccc(N4CCC5(CC4)CC(N4CCC6(CC4)COc4cc7c(cc46)C(=O)N(C4CCC(=O)NC4=O)C7=O)C5)nn3)CC2)cc1Cl (some centres unmarked) [PROTAC 63] |  |  | 51 nM | 170 nM
5 | N#Cc1ccc(O[C@H]2CC[C@H](NC(=O)c3ccc(N4CC(N5CCC6(CC5)COc5cc7c(cc5C6)C(=O)N(C5CCC(=O)NC5=O)C7=O)C4)nn3)CC2)cc1Cl (some centres unmarked) [PROTAC 64, N-((1r,4r)-4-(3-chloro-4-cyanophenoxy)cyclohexyl)-6-(3-(7′-(2,6-dioxopiperidin-3-yl)-6′,8′-dioxo-4′,6′,7′,8′-tetrahydro-2′H-spiro[piperidine-4,3′-pyran[2,3-f]isoindole]-1-yl)azetidin-1-yl]pyridazine-3-carboxamide] |  |  | 960 nM | 130 nM
6 | N#Cc1ccc(O[C@H]2CC[C@H](NC(=O)c3ccc(N4CCC(CN5CCC6(CC5)COc5cc7c(cc5O6)CN(C5CCC(=O)NC5=O)C7=O)CC4)nn3)CC2)cc1Cl (some centres unmarked) [PROTAC 65] |  |  | 1.1 nM | 2370 nM
7 | N#Cc1ccc(O[C@H]2CC[C@H](NC(=O)c3ccc(N4CCC(CN5CCC6(CC5)Cc5cc7c(cc5O6)C(=O)N(C5CCC(=O)NC5=O)C7=O)CC4)nn3)CC2)cc1Cl (some centres unmarked) [PROTAC 66, N-((1r,4r)-4-(3-chloro-4-cyanophenoxy)cyclohexyl)-6-(4-((6-(2,6-dioxopiperidine-3-yl)-5,7-dioxo-3,5,6,7-tetrahydrospiro[furo[2,3-f]isoindole-2,4′-piperidinyl]-1′-yl)methyl)piperidin-1-yl) pyridazine-3-carboxamide] |  |  | 50 nM | 3000 nM
8 | N#Cc1ccc(O[C@H]2CC[C@H](NC(=O)c3ccc(N4CC(N5CCC6(CC5)Cc5cc7c(cc5O6)C(=O)N(C5CCC(=O)NC5=O)C7=O)C4)nn3)CC2)cc1Cl (some centres unmarked) [PROTAC 67, N-((1r,4r)-4-(3-chloro-4-cyanophenoxy)cyclohexyl)-6-(3-(6-(2,6-dioxypiperidin-3-yl)-5,7-dioxo-3,5,6,7-tetrahydrospiro[furo[2,3-f]isoindole-2,4′-piperidin]-1′-yl)azetidin-1-yl)pyridazine-3-carboxamide] |  |  | 6500 nM | 6100 nM
9 | CC1(C)C(=O)N(c2ccc(C#N)c(C(F)(F)F)c2)C(=S)N1c1ccc(C(=O)N2CCC(F)(CN3CC4(CCc5cc6c(cc5O4)C(=O)N(C4CCC(=O)NC4=O)C6)C3)CC2)c(F)c1 (centres unmarked) [PROTAC 68] |  |  | 30 nM | 3860 nM
10 | CC1(C)C(=O)N(c2ccc(C#N)c(C(F)(F)F)c2)C(=S)N1c1ccc(C(=O)N2CCC(CN3CCC4(CC3)COc3cc5c(cc3C4)C(=O)N(C3CCC(=O)NC3=O)C5=O)CC2)c(F)c1 (centres unmarked) [PROTAC 69] |  |  | 4260 nM | 3390 nM
11 | CC1(C)C(=O)N(c2ccc(C#N)c(C(F)(F)F)c2)C(=S)N1c1ccc(C(=O)N2CC(CN3CCC4(CCc5cc6c(cc5O4)C(=O)N(C4CCC(=O)NC4=O)C6=O)CC3)C2)c(F)c1 (centres unmarked) [PROTAC 71] |  |  | 4570 nM | 
12 | CC1(C)C(=O)N(c2ccc(C#N)c(C(F)(F)F)c2)C(=S)N1c1ccc(C(=O)N2CCC(N3CCC4(CC3)COc3cc5c(cc3C4)C(=O)N(C3CCC(=O)NC3=O)C5=O)CC2)c(F)c1 (centres unmarked) [PROTAC 78, 4-(3-(4-(4-(7′-(2,6-dioxopiperidin-3-yl)-6′,8′-dioxo-4′,6′,7′,8′-tetrahydro-2′H-spiro[piperidine-4,3′-pyrano[2,3-f]isoindol]-1-yl)piperidine-1-carbonyl)-3-fluorophenyl)-4,4-dimethyl-5-oxo-2-thioimidazolidin-1-yl)-2-(trifluoromethyl)benzonitrile] |  |  | 2700 nM | 
13 | CC1(C)C(=O)N(c2ccc(C#N)c(C(F)(F)F)c2)C(=S)N1c1ccc(C(=O)N2CC3(CC(N4CCC5(CC4)COc4cc6c(cc45)C(=O)N(C4CCC(=O)NC4=O)C6=O)C3)C2)c(F)c1 (centres unmarked) [PROTAC 79, 4-(3-(4-(6-(6-(2,6-dioxopiperidin-3-yl)-5,7-dioxo-6,7-dihydro-2H,5H-spiro[furo[2,3-f]isoindole-3,4′-piperidin]-1′-yl)-2-azaspiro[3.3]heptane-2-carbonyl)-3-fluorophenyl)-4,4-dimethyl-5-oxo-2-thioimidazolidin-1-yl)-2-(trifluoromethyl)benzonitrile] |  |  | 4090 nM | 
14 | CC1(C)C(=O)N(c2ccc(C#N)c(C(F)(F)F)c2)C(=S)N1c1ccc(C(=O)N2CC(N3CCC4(CC3)COc3cc5c(cc34)C(=O)N(C3CCC(=O)NC3=O)C5=O)C2)c(F)c1 (centres unmarked) [PROTAC 81, 4-(3-(4-(3-(6-(2,6-dioxopiperidin-3-yl)-5,7-dioxo-6,7-dihydro-2H,5H-spiro[furo[2,3-f]isoindole-3,4′-piperidin]-1′-yl)azetidine-1-carbonyl)-3-fluorophenyl)-4,4-dimethyl-5-oxo-2-thioimidazolidin-1-yl)-2-(trifluoromethyl)benzonitrile] |  |  | 9510 nM | 
15 | CC1(C)C(=O)N(c2ccc(C#N)c(C(F)(F)F)c2)C(=S)N1c1ccc(C(=O)N2CCC(F)(CN3CCC4(CCc5cc6c(cc5O4)C(=O)N(C4CCC(=O)NC4=O)C6=O)CC3)CC2)c(F)c1 (centres unmarked) [PROTAC 82] |  |  | 1300 nM | 
16 | CC1(C)C(=O)N(c2ccc(C#N)c(C(F)(F)F)c2)C(=S)N1c1ccc(C(=O)N2CCC(CN3CCC4(CCc5cc6c(cc5O4)C(=O)N(C4CCC(=O)NC4=O)C6=O)CC3)CC2)c(F)c1 (centres unmarked) [PROTAC 84] |  |  | 3800 nM | 

Further lines, with some results ahead:

Row | IC50 [1, 4] | IC50 [1, 5] | Compound | IC50 [2] | IC50 [3]
17 | 81 nM |  | COc1cc(Nc2ncc3c(n2)-c2ccc(Cl)cc2C(c2c(F)cccc2OC)=NC3)ccc1C(=O)N1CCC2(CC1)COc1cc3c(cc1O2)CN(C1CCC(=O)NC1=O)C3=O (centres unmarked) [PROTAC 2, 3-(1-(4-((9-chloro-7-(2-fluoro-6-methoxyphenyl)-5H-benzo[c]pyrimido[4,5-e]azepine-2-yl)amino)-2-methoxybenzoyl)-6′-oxo-6′,8′-dihydro-3′H,7′H-spiro[piperidine-4,2′-[1,4]dioxino[2,3-f]isoindole]-7′-yl)piperidine-2,6-dione] |  | 
18 | 420 nM |  | COc1cc(Nc2ncc3c(n2)-c2ccc(Cl)cc2C(c2c(F)cccc2OC)=NC3)ccc1C(=O)NCCOCCC(=O)N1CCC2(CCc3cc4c(cc3O2)C(=O)N(C2CCC(=O)NC2=O)C4=O)CC1 (centres unmarked) [PROTAC 5, 4-((9-chloro-7-(2-fluoro-6-methoxyphenyl)-5H-benzo[c]pyrimido[4,5-e]azepine-2-yl)amino)-N-(2-(3-(7′-(2,6-dioxopiperidin-3-yl)-6′,8′-dioxo-4′,6′,7′,8′-tetrahydro-3′H-spiro[piperidine-4,2′-pyrano[2,3-f]isoindol]-1-yl)-3-oxopropoxy)ethyl)-2-methoxybenzamide] |  | 
19 | 320 nM |  | COc1cc(Nc2ncc3c(n2)-c2ccc(Cl)cc2C(c2c(F)cccc2OC)=NC3)ccc1C(=O)NCCOCCC(=O)N1CCC2(CC1)COc1cc3c(cc1C2)C(=O)N(C1CCC(=O)NC1=O)C3=O (centres unmarked) [PROTAC 6, 4-((9-chloro-7-(2-fluoro-6-methoxyphenyl)-5H-benzo[c]pyrimido[4,5-e]azepine-2-yl)amino)-N-(2-(3-(7′-(2,6-dioxopiperidin-3-yl)-6′,8′-dioxo-4′,6′,7′,8′-tetrahydro-2′H-spiro[piperidine-4,3′-pyrano[2,3-f]isoindol]-1-yl)-3-oxopropoxy)ethyl)-2-methoxybenzamide] |  | 
20 | 380 nM |  | COc1cc(Nc2ncc3c(n2)-c2ccc(Cl)cc2C(c2c(F)cccc2OC)=NC3)ccc1C(=O)NCCOCCC(=O)N1CC2(CCc3cc4c(cc3O2)C(=O)N(C2CCC(=O)NC2=O)C4=O)C1 (centres unmarked) [PROTAC 8, 4-((9-chloro-7-(2-fluoro-6-methoxyphenyl)-5H-benzo[c]pyrimido[4,5-e]azepine-2-yl)amino)-N-(2-(3-(7′-(2,6-dioxopiperidin-3-yl)-6′,8′-dioxo-4′,6′,7′,8′-tetrahydro-3′H-spiro[azetidine-3,2′-pyrano[2,3-f]isoindol]-1-yl)-3-oxopropoxy)ethylbase)-2-methoxybenzamide] |  | 
21 |  | 5030 nM | CC(=O)c1c(C)c2cnc(Nc3ccc(N4CCN(CCOCCC(=O)N5CCC6(CCc7cc8c(cc7O6)C(=O)N(C6CCC(=O)NC6=O)C8=O)CC5)CC4)cn3)nc2n(C2CCCC2)c1=O (centres unmarked) [PROTAC 38, 1-(3-(2-(4-(6-((6-acetyl-8-cyclopentyl-5-methyl-7-oxo-7,8-dihydropyridone[2,3-d]pyrimidin-2-yl)amino)pyridin-3-yl)piperazin-1-yl)ethoxy)propionyl)-7′-(2,6-dioxopiperidin-3-yl)-3′,4′-dihydro-6′H-spiro[piperidine-4,2′-pyrano[2,3-f]isoindole]-6′,8′(7′H)-dione] |  | 
22 |  | 2090 nM | CC(=O)c1c(C)c2cnc(Nc3ccc(N4CCNCC4)cn3)nc2n(C2CCCC2)c1=O [Palbociclib, reference compound] |  | 
